For two molecules, Ki results are on record in ChEMBL document CHEMBL3638654, “5-HT3 receptor modulators, methods of making, and use thereof” (2015).

“And” between values parts separate entries of the source, which are not always exact repeats. Equal values may be shown once.

This experiment addresses T1, 5-hydroxytryptamine receptor 3A (Homo sapiens, UniProt P46098).
T1 sequence (P46098 whole entry): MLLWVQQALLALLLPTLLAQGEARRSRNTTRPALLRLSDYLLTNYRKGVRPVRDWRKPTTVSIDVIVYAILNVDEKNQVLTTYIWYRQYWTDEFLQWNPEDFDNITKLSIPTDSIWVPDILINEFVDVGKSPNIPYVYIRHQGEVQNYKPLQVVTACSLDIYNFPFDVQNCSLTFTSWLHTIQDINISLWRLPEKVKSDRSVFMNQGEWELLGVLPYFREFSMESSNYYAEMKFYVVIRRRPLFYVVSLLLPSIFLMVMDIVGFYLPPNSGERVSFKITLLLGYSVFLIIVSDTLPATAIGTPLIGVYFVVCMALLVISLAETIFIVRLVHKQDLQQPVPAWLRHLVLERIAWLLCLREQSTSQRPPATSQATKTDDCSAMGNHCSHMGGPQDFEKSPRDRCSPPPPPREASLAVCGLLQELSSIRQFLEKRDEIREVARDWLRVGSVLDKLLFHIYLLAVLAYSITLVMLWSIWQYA
Kind of experiment: Radioligand Binding Assay: The relative affinity of the various compounds for the human 5-HT3 receptor was measured in a radioligand binding assay, using a scintillation proximity assay (SPA) format. Test compounds were dissolved to 10 mM in 100% DMSO, then serially diluted at 10x assay concentrations in 100% DMSO in 96-well polypropylene plates and further diluted to 4x assay concentrations with the assay buffer. Samples were incubated in 50 mM Tris-HCl, pH 7.5, 3 mM MgCl2, 1 mM EDTA and 10% DMSO with 10 nM [9-methyl-3H]BRL-43694 (Perkin Elmer), 3 ug of human 5-HT3 receptor membranes (Perkin Elmer) and 0.5 mg/mL SPA beads (WGA PVT, Amersham Biosciences) in a final volume of 0.2 mL. Binding reactions were set up in wells of PicoPlates-96 (Perkin Elmer) by adding consecutively 50 uL of each competing compound or buffer, SPA beads, the radioligand and 5-HT3 receptor membranes. After an overnight incubation at room temperature on a Nutator mixer, plates were centrifuged for 15 min at 1,500 rpm. For orientation: Scintillation proximity formats need no separation of bound from free tracer.

What is called Ki is the dissociation constant of the complex between target and ligand, obtained from inhibition or displacement. Take `O=C1c2cccc3[nH]nc(c23)CN1CC1CN2CCC1CC2` (configuration not stated): the Ki was 217 nM and 24 nM.
`O=C1c2cccc3[nH]nc(c23)CCN1CC1CN2CCC1CC2` (configuration not stated): the Ki is 579 nM and 241 nM.
